This note sets out measurements from patent US11203591B2, “Substituted 6-azabenzimidazole compounds” (Gilead Sciences, Inc., priority 2018, dated 2021).

human HPK1 (MAP4K1), sequence (Q92918 17-274): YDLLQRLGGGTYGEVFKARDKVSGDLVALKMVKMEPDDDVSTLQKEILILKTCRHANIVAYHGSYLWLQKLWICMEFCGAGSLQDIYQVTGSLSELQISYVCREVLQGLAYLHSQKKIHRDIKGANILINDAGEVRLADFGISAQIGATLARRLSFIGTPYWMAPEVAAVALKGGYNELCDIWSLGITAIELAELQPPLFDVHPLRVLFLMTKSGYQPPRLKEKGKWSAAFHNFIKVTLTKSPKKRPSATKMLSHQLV

The first assay has as its target human HPK1 (MAP4K1) (Homo sapiens (Human), UniProt Q92918). The experiment in a line: HPK1 IC50 Assay (TR-FRET peptide phosphorylation). Format: biochemical. To be noted: 0.15 nM HPK1, 10 μM ATP, 1 μM STK S1 peptide substrate; geometric mean. The essentials:
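Readout: TR-FRET (665 nm/620 nm) after EDTA stop, detecting STK S1 peptide (1 μM) phosphorylation by 0.15 nM HPK1 kinase domain, ATP-pre-activated, at 10 μM ATP over 3 h, 25° C, pH 7.0. IC50s from four-parameter variable-slope fits, normalized to staurosporine and DMSO, averaged geometrically.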
Take `CC(C)n1cnc2cc(-c3ccc4c(c3)N([C@H]3C[C@@](C)(N5CCCCC5)C3)C(=O)C4(C)C)nc(Nc3cc(C(=O)NC4(CF)CC4)c(Cl)cc3F)c21` [Example 293, 2-chloro-5-((6-(3,3-dimethyl-1-((1s,3s)-3-methyl-3-(piperidin-1-yl)cyclobutyl)-2-oxoindolin-6-yl)-3-isopropyl-3H-imidazo[4,5-c]pyridin-4-yl)amino)-4-fluoro-N-(1-(fluoromethyl)cyclopropyl)benzamide]: the IC50 stood at 0.05 nM.

`CCNC(=O)c1cc(Nc2nc(-c3ccc4c(c3)N([C@H]3C[C@@](C)(N5CCCCC5)C3)C(=O)C4(C)C)cc3ncn(C(C)C)c23)c(F)c(F)c1Cl` [Example 288, 2-chloro-5-((6-(3,3-dimethyl-1-((1s,3s)-3-methyl-3-(piperidin-1-yl)cyclobutyl)-2-oxoindolin-6-yl)-3-isopropyl-3H-imidazo[4,5-c]pyridin-4-yl)amino)-N-ethyl-3,4-difluorobenzamide] gave an IC50 of 0.08 nM.

Consider `CC(C)n1cnc2cc(-c3cnc4c(c3)N([C@H]3C[C@@](C)(N5CCCCC5)C3)C(=O)C4(C)C)nc(Nc3cc(C(=O)NCC(F)F)c(F)c(F)c3F)c21` [Example 274, N-(2,2-difluoroethyl)-5-((6-(3,3-dimethyl-1-((1s,3s)-3-methyl-3-(piperidin-1-yl)cyclobutyl)-2-oxo-2,3-dihydro-1H-pyrrolo[3,2-b]pyridin-6-yl)-3-isopropyl-3H-imidazo[4,5-c]pyridin-4-yl)amino)-2,3,4-trifluorobenzamide], for which the IC50 was 0.04 nM.

With `CCNC(=O)c1cc(Nc2nc(-c3cnc4c(c3)N([C@H]3C[C@@](C)(N5CCCCC5)C3)C(=O)C4(C)C)cc3ncn(C(C)C)c23)c(F)c(F)c1Cl` [Example 286, 2-chloro-5-((6-(3,3-dimethyl-1-((1s,3s)-3-methyl-3-(piperidin-1-yl)cyclobutyl)-2-oxo-2,3-dihydro-1H-pyrrolo[3,2-b]pyridin-6-yl)-3-isopropyl-3H-imidazo[4,5-c]pyridin-4-yl)amino)-N-ethyl-3,4-difluorobenzamide], half-maximal inhibition (IC50) required 0.1 nM.

For the compound `CCNC(=O)c1cc(Nc2nc(-c3ccc4c(c3)N([C@H]3C[C@@](C)(N5CCCCC5)C3)C(=O)C4(C)C)cc3ncn(C(C)C)c23)c(F)cc1C` [Example 276, 5-((6-(3,3-dimethyl-1-((1s,3s)-3-methyl-3-(piperidin-1-yl)cyclobutyl)-2-oxoindolin-6-yl)-3-isopropyl-3H-imidazo[4,5-c]pyridin-4-yl)amino)-N-ethyl-4-fluoro-2-methylbenzamide], the midpoint of inhibition, the IC50, lay at 0.06 nM.

Consider `CC(C)n1cnc2cc(-c3ccc4c(c3)N([C@H]3C[C@@](C)(N5CCCCC5)C3)C(=O)C4(C)C)nc(Nc3cc(C(=O)NCC(F)F)c(Cl)cc3F)c21` [Example 289, 2-chloro-N-(2,2-difluoroethyl)-5-((6-(3,3-dimethyl-1-((1s,3s)-3-methyl-3-(piperidin-1-yl)cyclobutyl)-2-oxoindolin-6-yl)-3-isopropyl-3H-imidazo[4,5-c]pyridin-4-yl)amino)-4-fluorobenzamide], for which the IC50 was 0.07 nM.

For the compound “N-(1-(difluoromethyl)cyclopropyl)-5-((6-(3,3-dimethyl-1-((1s,3s)-3-methyl-3-(piperidin-1-yl)cyclobutyl)-2-oxo-2,3-dihydro-1H-pyrrolo[3,2-b]pyridin-6-yl)-3-isopropyl-3H-imidazo[4,5-c]pyridin-4-yl)amino)-2,3,4-trifluorobenzamide [Example 280]”, the IC50 was found to be 0.05 nM.

Still in this assay, the particulars now being: recombinant HPK1 kinase domain 0.15 nM, 10 μM ATP, 1 μM STK S1 peptide; geometric mean of multiple experiments.
Regarding `CC[C@H](C)n1cnc2cc(-c3ccc4c(c3)N([C@H]3C[C@@H](N5CCC6(C5)CC6(F)F)C3)C(=O)C43CCN(C(C)=O)CC3)nc(Nc3ccc(C)c(C(=O)NC)c3)c21` (some centres unmarked) [Example 158], the 50% inhibitory concentration (IC50) was 0.2 nM.

With `CNC(=O)c1cc(Nc2nc(-c3ccc4c(c3)N([C@H]3C[C@@H](N5CCCC(C)(C)C5)C3)C(=O)C4(C)C)cc3ncn(C4CC4)c23)ccc1C` [Example 38], the IC50 came to 0.07 nM.

With `Cc1c(C(=O)NC2(C(F)F)CC2)cc(Nc2nc(-c3cnc4c(c3)N([C@H]3C[C@@](C)(N5CC6CCC6C5)C3)C(=O)C4(C)C)cc3ncn(C(C)C)c23)c(F)c1F` (some centres unmarked) [Example 209, 5-((6-(1-((1s,3s)-3-(3-Azabicyclo[3.2.0]heptan-3-yl)-3-methylcyclobutyl)-3,3-dimethyl-2-oxo-2,3-dihydro-1H-pyrrolo[3,2-b]pyridin-6-yl)-3-isopropyl-3H-imidazo[4,5-c]pyridin-4-yl)amino)-N-(1-(difluoromethyl)cyclopropyl)-3,4-difluoro-2-methylbenzamide], the IC50 is 0.08 nM.

As for `CNC(=O)c1cc(Nc2nc(-c3ccc4c(c3)N([C@H]3C[C@@H](N5C6COCC5C6)C3)C(=O)C4(C)C)cc3ncn(C(C)C)c23)c(F)cc1C` [Example 9], the IC50 was 0.1 nM.

For `CC(C)n1cnc2cc(-c3cnc4c(c3)N([C@H]3C[C@@](C)(N5CCCCC5)C3)C(=O)C4(C)C)nc(Nc3cc(C(=O)NC4(C(F)(F)F)CC4)c(Cl)c(F)c3F)c21` [Example 204, 2-Chloro-5-((6-(3,3-dimethyl-1-((1s,3s)-3-methyl-3-(piperidin-1-yl)cyclobutyl)-2-oxo-2,3-dihydro-1H-pyrrolo[3,2-b]pyridin-6-yl)-3-isopropyl-3H-imidazo[4,5-c]pyridin-4-yl)amino)-3,4-difluoro-N-(1-(trifluoromethyl)cyclopropyl)benzamide], the IC50 came out at 0.2 nM.

Turning to `CCNC(=O)c1cc(Nc2nc(-c3cnc4c(c3)N([C@H]3C[C@@](C)(N5CCCCC5)C3)C(=O)C4(C)C)cc3ncn(C(C)C)c23)c(F)c(F)c1C` [Example 222, 5-((6-(3,3-Dimethyl-1-((1s,3s)-3-methyl-3-(piperidin-1-yl)cyclobutyl)-2-oxo-2,3-dihydro-1H-pyrrolo[3,2-b]pyridin-6-yl)-3-isopropyl-3H-imidazo[4,5-c]pyridin-4-yl)amino)-N-ethyl-3,4-difluoro-2-methylbenzamide], the IC50 stood at 0.06 nM.

In the case of `CNC(=O)c1cc(Nc2nc(-c3ccc4c(c3)N([C@H]3C[C@@H](N5C[C@H]6CC[C@@H]5C6)C3)C(=O)C43CCN(C(=O)C4COC4)CC3)cc3ncn(C4CC4)c23)ccc1C` [Example 42], the IC50 turned out to be 0.06 nM.

Consider `CNC(=O)c1cc(Nc2nc(-c3ccc4c(c3)N([C@H]3C[C@@H](N5CCCCC5)C3)C(=O)C43CCN(C(=O)C45CC(O)(C4)C5)CC3)cc3ncn(C(C)C)c23)ccc1C` [Example 148], for which the IC50 was 0.2 nM.

As for `CCNC(=O)c1cc(Nc2nc(-c3ccc4c(c3)N([C@H]3C[C@@H](N5CCC[C@@H](F)C5)C3)C(=O)C43CCN(C4COC4)CC3)cc3ncn(C(C)C)c23)c(F)cc1C` [Example 171], the IC50 turned out to be 0.2 nM.

As for `Cc1ccc(Nc2nc(-c3ccc4c(c3)N([C@H]3C[C@@H](N5CCCCC5)C3)C(=O)C4(C)C)cc3ncn(C(C)C)c23)cc1C(=O)N[C@@H](C)CF` [Example 29], the IC50 came out at 0.1 nM.

With `CCNC(=O)c1ccc(F)c(Nc2nc(-c3cnc4c(c3)N([C@H]3C[C@@](C)(N5CCCCC5)C3)C(=O)C4(C)C)cc3ncn(C(C)C)c23)c1` [Example 223, 3-((6-(3,3-Dimethyl-1-((1s,3s)-3-methyl-3-(piperidin-1-yl)cyclobutyl)-2-oxo-2,3-dihydro-1H-pyrrolo[3,2-b]pyridin-6-yl)-3-isopropyl-3H-imidazo[4,5-c]pyridin-4-yl)amino)-N-ethyl-4-fluorobenzamide], the IC50 stood at 0.2 nM.

For the compound `CC(=O)N1CCC2(CC1)C(=O)N([C@H]1C[C@@H](N3CC4CCC(C3)O4)C1)c1cc(-c3cc4ncn(C(C)C)c4c(Nc4cc(C(=O)NC(C)C)c(C)cc4F)n3)ccc12` [Example 78], the IC50 worked out at 0.2 nM.

Take `Cc1cc(F)c(Nc2nc(-c3cnc4c(c3)N([C@H]3C[C@@H](N5CCCCC5)C3)C(=O)C4(C)C)cc3ncn(C(C)C)c23)cc1C(=O)NC1(C(F)F)CC1` [Example 67]: the IC50 was found to be 0.3 nM.

`CNC(=O)c1cc(Nc2nc(-c3ccc4c(c3)N([C@H]3C[C@@H](NC5CCC(F)(F)CC5)C3)C(=O)C4(C)C)cc3ncn(C(C)C)c23)ccc1C` [Example 80]: the IC50 worked out at 0.1 nM.

Consider `CNC(=O)c1cc(Nc2nc(-c3ccc4c(c3)N([C@H]3C[C@@H](N5CC[C@H](F)C5)C3)C(=O)C4(C)C)cc3ncn(C(C)C)c23)ccc1C` [Example 5], for which the IC50 amounted to 0.2 nM.

As for `Cc1c(C(=O)NC2(C(F)F)CC2)cc(Nc2nc(-c3cnc4c(c3)N([C@H]3C[C@@](C)(N5CCCC6(CC6)C5)C3)C(=O)C4(C)C)cc3ncn(C(C)C)c23)c(F)c1F` [Example 194, N-(1-(Difluoromethyl)cyclopropyl)-5-((6-(3,3-dimethyl-1-((1s,3s)-3-methyl-3-(5-azaspiro[2.5]octan-5-yl)cyclobutyl)-2-oxo-2,3-dihydro-1H-pyrrolo[3,2-b]pyridin-6-yl)-3-isopropyl-3H-imidazo[4,5-c]pyridin-4-yl)amino)-3,4-difluoro-2-methylbenzamide], the IC50 was 0.06 nM.

Regarding `CNC(=O)c1cc(Nc2nc(-c3ccc4c(c3)N([C@H]3C[C@@H](N5CCC(C(F)F)C5)C3)C(=O)C4(C)C)cc3ncn(C(C)C)c23)ccc1C` (some centres unmarked) [Example 104, 5-((6-(1-((1s,3s)-3-(3-(difluoromethyl)pyrrolidin-1-yl)cyclobutyl)-3,3-dimethyl-2-oxoindolin-6-yl)-3-isopropyl-3H-imidazo[4,5-c]pyridin-4-yl)amino)-N,2-dimethylbenzamide], the IC50 is 0.2 nM.

As to `CNC(=O)c1cc(Nc2nc(-c3ccc4c(c3)N([C@H]3C[C@@H](N5CCCCC5)C3)C(=O)C43CCN(C(=O)C4COC4)CC3)cc3ncn(C4CC4)c23)ccc1C` [Example 153], the IC50 was 0.1 nM.

Take `CC[C@H](C)NC(=O)c1cc(Nc2nc(-c3ccc4c(c3)N([C@H]3C[C@@H](N5CCCCC5)C3)C(=O)C43CCN(C(C)=O)CC3)cc3ncn(C(C)C)c23)c(F)cc1C` [Example 88]: the IC50 was determined as 0.2 nM.
